Source: patent US20090012178A1, “Benzoxazocines and Their Therapeutic Use” (priority 2005, published 2009)
pIC50: −log10 of the molar value. Like-named read-outs stand apart in the source and are kept apart here.

Legend:
5-HT Transporter = 5-HT Transporter (Homo sapiens, UniProt P31645); experiment: 5-HT Transporter binding assay (SRI)
Description: (§1) CYP 2D6 inhibition assays were conducted according to the method of Ono et al. (1996—Xenobiotica, 26: 681-693). 5-HT Transporter binding assays were conducted according to the method of Tatsumi et al. (1997—Eur. J. Pharmacol., 340: 249-258). NA Transporter binding assays were conducted according to the method of Pacholczyk et al. (1991—Nature, 350: 350-354).

NA Transporter = NA Transporter (Homo sapiens, UniProt P23975); experiment: NA Transporter binding assay (NRI)
Description: as §1

CYP 2D6 = CYP 2D6 (Homo sapiens, UniProt P10635); experiment: CYP 2D6 inhibition, substrate based assay; type: in vitro ADME
Description: as §1

[1] = Mouse hotplate model of acute analgesia; type: in vivo; settings: for Paw Latency (Sec) above control: 60 min before testing, * = statistical significance
Description: Compounds of the invention have also been evaluated in the mouse hotplate model of acute analgesia. Mice placed on a metallic hot plate will respond by paw licking or by jumping up from the plate (Eddy et al., 1950—J. Pharmacol. Exp. Ther.; 98:121-137). Analgesics increase nociceptive reaction latency.
Mice (17-23 g male Swiss mice ICO: OF1) were placed on a metallic hot plate maintained at 56±0.2° C. The nociceptive reaction latency, characterized by a licking reflex of the forepaws or by a jumping off the hot plate, was recorded. Plate heat cut-off time was 30 seconds. The test substances and vehicle were orally administered 60 min before testing. Results are given in Table 2 (nt=not tested; *denotes statistical significance achieved).

[2] = Formalin-induced paw licking in mouse; type: in vivo; settings: * = statistical significance; for Nociception, Early Phase: licking time 0 to 5 minutes after formalin; for Nociception, Late Phase: licking time 20 to 30 minutes after formalin
Description: Compounds of the invention have also been evaluated in the formalin-induced paw licking model in mice. Compounds were evaluated for both an early stage response and a late stage response against duloxetine and nefopam as controls.
Inflammation was induced by subplantar injection of a 5% formalin solution (0.02 ml) into the mouse right hindpaw (20-25 g male Rj: NMRI). Hindpaw licking time was continuously recorded in a blinded fashion between 0 to 5 minutes (early phase) and between 20 to 30 minutes (late phase) after formalin injection (Hunskaar et al., 1985—J. Neurosci. Methods; 14:69-76).
The test substances and vehicle were orally administered 60 min before formalin injection. Results are given in Table 3 (nt=not tested; *denotes statistical significance achieved).

[3] = Morphine challenge assay (morphine-induced emesis in ferrets); type: in vivo, ferret; settings: for % Reduction in no of retches/vomits: 3 mg/kg ip, 60 min before morphine 0.125 mg/Kg s.c., * = statistical significance; for anti-emetic activity in the morphine-induced emesis model (in words): ferrets
Description: In this respect, compounds of the invention retain the low side-effect potential of nefopam while having greater efficacy and more favourable pharmacokinetic parameters for chronic use.
Morphine was administered (0.125 mg/Kg s.c.) to albino or fitch male ferrets (0.9-1.7 kg) to induce emesis. Emesis was characterized by rhythmic abdominal contractions which were either associated with the oral expulsion of solid or liquid material from the gastrointestinal tract (ie vomiting) or not associated with the passage of material (i.e. retching movements). The number of highly distinctive abdominal contractions was counted.
The test substances and vehicle were administered by intraperitoneal injection 60 min before morphine administration. Results are given in Table 4 (*denotes statistical significance achieved).

Behavioural Despair Test = type: in vivo, mouse; settings: 30 minutes before the test, * = statistical significance
Description: Compounds of the invention have been evaluated in the Behavioural Despair Test, a model which detects antidepressant activity.
The Behavioural Despair Test was conducted according to the method of Porsolt et al., (1977—Arch. Int. Pharmacodyn., 229:327-336). Mice forced to swim in a situation from which they cannot escape rapidly become immobile. Antidepressants decrease the duration of immobility.
Mice (20-27 g male Rj: NMRI) were individually placed in a cylinder (height=24 cm, diameter=13 cm) containing 10 cm water (22° C.), from which they cannot escape. The mice were placed in the water for 6 minutes and the duration of immobility during the last 4 minutes was measured. All compounds were administered i.p. 30 minutes before the test, and compared with a vehicle control group. Results are given in Table 5 (nt=not tested; *denotes statistical significance achieved).

Pharmacokinetic profile = type: in vivo; settings: compared with nefopam
cytochrome P450 enzymes = experiment: Metabolism by cytochrome P450 enzymes; type: in vitro ADME
[4] = read-out: CYP 2D6 inhibition IC50

CYP 2D6, sequence (P10635 whole entry): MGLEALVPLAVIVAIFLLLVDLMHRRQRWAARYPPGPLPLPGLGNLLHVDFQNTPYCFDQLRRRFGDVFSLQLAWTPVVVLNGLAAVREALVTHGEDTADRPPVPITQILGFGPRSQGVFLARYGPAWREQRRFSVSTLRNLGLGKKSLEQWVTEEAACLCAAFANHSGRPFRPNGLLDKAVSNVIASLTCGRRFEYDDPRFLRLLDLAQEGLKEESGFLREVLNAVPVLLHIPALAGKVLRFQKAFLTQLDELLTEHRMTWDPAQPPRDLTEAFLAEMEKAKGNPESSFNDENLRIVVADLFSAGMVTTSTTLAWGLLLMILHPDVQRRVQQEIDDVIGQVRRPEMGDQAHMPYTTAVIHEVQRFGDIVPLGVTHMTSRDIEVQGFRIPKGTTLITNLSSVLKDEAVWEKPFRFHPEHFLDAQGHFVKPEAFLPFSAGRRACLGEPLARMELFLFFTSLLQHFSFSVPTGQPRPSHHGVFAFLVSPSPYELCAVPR
5-HT Transporter, sequence (P31645 whole entry): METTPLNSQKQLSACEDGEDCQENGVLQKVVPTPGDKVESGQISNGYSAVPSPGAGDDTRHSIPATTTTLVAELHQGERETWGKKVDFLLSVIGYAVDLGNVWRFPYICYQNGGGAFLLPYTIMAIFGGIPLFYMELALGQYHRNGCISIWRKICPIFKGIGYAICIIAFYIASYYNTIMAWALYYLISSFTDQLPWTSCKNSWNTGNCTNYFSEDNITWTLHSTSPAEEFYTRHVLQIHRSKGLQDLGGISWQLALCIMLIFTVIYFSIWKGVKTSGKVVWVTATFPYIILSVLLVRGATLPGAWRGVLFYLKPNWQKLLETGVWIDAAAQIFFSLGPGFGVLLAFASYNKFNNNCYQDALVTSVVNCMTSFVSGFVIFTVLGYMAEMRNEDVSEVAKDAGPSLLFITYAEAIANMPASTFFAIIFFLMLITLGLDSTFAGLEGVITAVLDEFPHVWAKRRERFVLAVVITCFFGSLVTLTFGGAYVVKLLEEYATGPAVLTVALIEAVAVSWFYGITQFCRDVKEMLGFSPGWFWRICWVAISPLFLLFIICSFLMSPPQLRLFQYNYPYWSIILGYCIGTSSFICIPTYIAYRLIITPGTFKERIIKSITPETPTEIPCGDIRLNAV
NA Transporter, sequence (P23975 whole entry): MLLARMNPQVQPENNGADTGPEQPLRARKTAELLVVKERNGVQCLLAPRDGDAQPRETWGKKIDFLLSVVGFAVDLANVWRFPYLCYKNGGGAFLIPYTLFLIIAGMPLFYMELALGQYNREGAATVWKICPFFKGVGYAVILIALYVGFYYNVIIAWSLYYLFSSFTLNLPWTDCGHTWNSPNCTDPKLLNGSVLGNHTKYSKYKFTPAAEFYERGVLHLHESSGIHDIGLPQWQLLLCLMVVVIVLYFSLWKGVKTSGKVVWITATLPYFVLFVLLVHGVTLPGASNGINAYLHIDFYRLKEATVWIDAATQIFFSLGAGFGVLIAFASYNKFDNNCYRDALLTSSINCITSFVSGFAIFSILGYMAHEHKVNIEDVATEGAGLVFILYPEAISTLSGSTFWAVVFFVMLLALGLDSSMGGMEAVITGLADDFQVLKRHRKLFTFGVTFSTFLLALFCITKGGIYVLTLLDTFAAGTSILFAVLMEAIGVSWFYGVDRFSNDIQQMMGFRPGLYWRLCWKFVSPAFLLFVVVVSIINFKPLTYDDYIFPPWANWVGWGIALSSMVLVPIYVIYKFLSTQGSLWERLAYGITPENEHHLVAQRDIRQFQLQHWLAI

| SMILES | pIC50 (NA Transporter; read-out: IC50 vs NRI) | pIC50 (CYP 2D6) | Paw Latency (Sec) above control ([1]; 30 mg/kg po) | Paw Latency (Sec) above control ([1]; 60 mg/kg po) | Nociception, Early Phase ([2]; 30 mg/kg po) [%] | Nociception, Late Phase ([2]; 30 mg/kg po) | Nociception, Early Phase ([2]; 60 mg/kg po) | Nociception, Late Phase ([2]; 60 mg/kg po) | % Reduction in no of retches/vomits [3] [%*] | also measured |
| --- | --- | --- | --- | --- | --- | --- | --- | --- | --- | --- |
| COc1cccc(C2OCCN(C)Cc3cc(C#N)ccc32)c1 (single isomer, unassigned) [Example 1] | 6.40 | 5.24 | 5 s | 7* Sec | −49 | −46% | −75%* | −88%* | 91 | pIC50 (5-HT Transporter): 8.05; efficacy in the mouse hot-plate model (in words) [1]: greater efficacy than the racemate; Paw Latency (Sec) above control ([1]; 10 mg/kg po): 9* Sec; anti-emetic activity in the morphine-induced emesis model (in words) [3]: anti-emetic; Duration of Immobility (% change from ctrl) (Behavioural Despair Test; 10 mg/kg ip): −24* %; Duration of Immobility (% change from ctrl) (Behavioural Despair Test; 20 mg/kg ip): −8%; Duration of Immobility (% change from ctrl) (Behavioural Despair Test; 40 mg/kg ip): −61* %; Duration of Immobility (% change from ctrl) (Behavioural Despair Test; 80 mg/kg ip): −85* %; pharmacokinetic profile (in words) (Pharmacokinetic profile): greatly improved pharmacokinetic profile over the parent compound nefopam; metabolism by cytochrome P450 enzymes (in words) (cytochrome P450 enzymes): metabolised by a range of cytochrome P450 enzymes |
| COc1cccc(C2OCCN(C)Cc3cc(C4CC4)ccc32)c1 (single isomer, unassigned) [Example 3, 8-cyclopropyl-5-methyl-1-(3-methoxy)phenyl-1,3,4,6-tetrahydro-5H-benz[f]-2,5-oxazocine] |  |  | 6* Sec | 9* Sec | −45 | −51% | −56%* | −73%* | 89 | pIC50 (5-HT Transporter): 8.28; pIC50 (NA Transporter): 7.34; pIC50 (CYP 2D6; [4]): 5.96; Paw Latency (Sec) above control ([1]; 10 mg/kg po): 3 s; anti-emetic activity in the morphine-induced emesis model (in words) [3]: anti-emetic |
| CNCC[C@H](Oc1cccc2ccccc12)c1cccs1 [Duloxetine] |  |  |  |  | −49 | −85%* |  |  |  | Duration of Immobility (% change from ctrl) (Behavioural Despair Test; 10 mg/kg ip): −6%; Duration of Immobility (% change from ctrl) (Behavioural Despair Test; 20 mg/kg ip): −9%; Duration of Immobility (% change from ctrl) (Behavioural Despair Test; 40 mg/kg ip): −65* %; Duration of Immobility (% change from ctrl) (Behavioural Despair Test; 80 mg/kg ip): −100* % |
| COc1cccc([C@H]2OCCN(C)Cc3cc(C#N)ccc32)c1 [Example 2, (1R)-8-cyano-5-methyl-1-(3-methoxy)phenyl-1,3,4,6-tetrahydro-5H-benz[f]-2,5-oxazocine] | 5.42 | 5.02 | 6 s | 1 s |  |  |  |  |  | pIC50 (5-HT Transporter; read-out: IC50 vs SRI): 6.92 |
| COc1cccc(C2OCCN(C)Cc3cc(C4CC4)ccc32)c1 (stereo not shown) [Example 4, 8-cyclopropyl-5-methyl-1-(3-methoxy)phenyl-1,3,4,6-tetrahydro-5H-benz[f]-2,5-oxazocine] | < 6.00 | < 5.00 | 5 s | 5 s |  |  |  |  |  | pIC50 (5-HT Transporter; read-out: IC50 vs SRI): 7.68; pIC50 (NA Transporter; read-out: IC50 as NRI): < 6.00; pIC50 (CYP 2D6; [4]): 5.00 |
| CN(C)CCCN1c2ccccc2CCc2ccccc21 [Imipramine] |  |  |  |  |  |  |  |  |  | Duration of Immobility (% change from ctrl) (Behavioural Despair Test; 32 mg/kg ip): −62* % |
| CN1CCOC(c2ccccc2)c2ccccc2C1 (stereo not shown) [Nefopam, reference compound] |  |  |  |  |  |  | −46% | −26% | 96 | Nociception, Early Phase ([2]; 100 mg/kg po): −76%*; Nociception, Late Phase ([2]; 100 mg/kg po): −68%* |
